Data as given in patent US20040198653A1, “Pharmaceutical compositions which inhibit proliferation of pituitary adenomas and method of use thereof” (priority 2001, published 2004).
Where a SMILES comes first, the peptide text is derived from it. Bridges are numbered along the chain shown (N, C = ends). [ ]: non-standard residue; d: D form. The star is where a group is joined. Gly(N-2-aminoethyl) = NCCNCC(=O)O; 3Pal = N[C@@H](Cc1cccnc1)C(=O)O; Tic = O=C(O)[C@@H]1Cc2ccccc2CN1; X1 = Nc1ccn(CC(=O)*)c(=O)n1; Abu = CC[C@H](N)C(=O)O; Bn = c1ccc(C*)cc1

Assays:
pituitary adenoma cells [1] = experiment: Cell proliferation: CELLTITER 96 Aqueous (MTS/PMS) assay, number of viable cells; type: cell-based; conditions: 10^-9 M, 48 hours incubation, medium with 10% FBS, absorbance at 490 nm
Protocol: The effects of SSTR selective agonists on pituitary adenoma cell proliferation were assessed by the CELLTITER 96 Aqueous Non-Radioactive Cell Proliferation Assay (Promega, Milano, Italy), a colorimetric method for determining the number of viable cells in proliferation assays. The assay contains solutions of a tetrazolium compound (Owen's reagent; MTS) and an electron coupling reagent (phenazine methosulphate; PMS). MTS is bioreduced by cells into a formazan that is soluble in tissue culture medium. The absorbance of the formazan at 490 nm can be measured directly from 96 well assay plates (Zatelli M C, et al., 2000 J Clin Endocrinol Metab 85: 847-852; Cory A H, et al., 1991 Cancer Commun 3: 207-212). The conversion of MTS into the aqueous soluble formazan is accomplished by dehydrogenase enzymes found in metabolically active cells. The quantity of formazan product as measured by the amount of 490 nm absorbance is directly proportional to the number of living cells in culture.
Briefly, adenoma cells were plated in 96-multiwell plates (2×10^4 cells/well) and incubated for 48 hours in a medium supplemented with 10% FBS in the presence or absence of each SRIF analogue (including in one instance, compounds 2 & 3 together) at a concentration of 10^−9 M. Treatments were renewed by adding fresh analogues to the wells after the first 24 hours of incubation. At the end of the incubation period, 20 μl of a combined MTS/PMS solution was added to each well with a repeating pipette, and the plates were incubated for an additional 4 hours at 37° C. in a humidified 5% CO2 atmosphere. The absorbance at 490 nm was then recorded using an ELISA plate reader (EASIA Reader, Medgenix). Results (absorbance at 490 nm) were obtained by determining the mean value of at least six experiments in eight replicates.

pituitary adenoma cells [2] = experiment: DNA synthesis: [3H]thymidine incorporation in pituitary adenoma cells; type: cell-based; conditions: 10^-9 M, 48 h incubation, medium with 10% FBS, pituitary cells from functioning adenomas
Protocol: The effects of SSTR selective agonists and antagonists on pituitary adenoma cell DNA synthesis were assessed by determining the rate of [^3H]thymidine incorporation, as previously described (Davis L, et al., 1994 In: Basic methods in Molecular Biology, 2nd edition, Appleton & Lange, Norwalk, Conn., USA: 611-646, degli Uberti E C, et al., 1991 J Clin Endocrinol Metab 72: 1364-1371).
Approximately 10^5 pituitary cells from two functioning adenomas were plated in quadruplicate wells the day of surgery and treated the day after with SRIF and with Compounds 1, 2, 3, and LANREOTIDE at 10^−9M. After 48 h incubation in a medium supplemented with 10% FBS in the presence of [^3H]thy (1.5 μCi/mL; 87 Ci/mmol) with or without each SRIF analogue. Treatments were renewed by adding fresh analogues to the wells after the first 24 h of incubation, without removing the medium.
After incubation, the cells were washed three times with ice-cold PBS and twice with 10% ice-cold trichloroacetic acid (TCA). TCA-precipitated material was solubilized in 500 μL 0.2 mol/L sodium hydroxide and 0.1% SDS. Cell-associated radioactivity was then counted in a scintillation spectrometer. Results (counts per min per well) were obtained by determining the mean value of at least six experiments in quadruplicate. The viability of cells in control and treated cultures was evaluated by Trypan blue staining.

SMILES | % Reduction Viable Cells (pituitary adenoma cells [1]) [%] | % Reduction [3H]Thymidine (pituitary adenoma cells [2]) [%]
C[C@@H](OCc1ccccc1)[C@H](NC(=O)[C@H]1CSSC[C@@H](NC(=O)CN(CCN)C(=O)Cn2ccc(N)nc2=O)C(=O)N[C@@H](Cc2cccnc2)C(=O)N[C@H](Cc2c[nH]c3ccccc23)C(=O)N[C@@H](CCCCN)C(=O)N1)C(=O)N[C@@H](Cc1ccc(O)cc1)C(N)=O [Compound 1, Caeg-c(D-Cys-Pal-D-Trp-Lys-D-Cys)-Thr(Bzl)-Tyr-NH2] (X1-[Gly(N-2-aminoethyl)][dC][3Pal][dW]K[dC]T(Bn)Y-NH2; disulfide 2-6) | 28.5 | –
CC[C@@H]1NC(=O)[C@H](CCCCN)NC(=O)[C@@H](Cc2c[nH]c3ccccc23)NC(=O)[C@H](Cc2ccc(O)cc2)NC(=O)[C@@H]2Cc3ccccc3CN2C(=O)[C@H](Cc2ccccc2)NC1=O [Compound 2, cyclo[Tic-Tyr-D-Trp-Lys-Abu-Phe]] (cyclo([Tic]Y[dW]K[Abu]F)) | 12.5 | 25.
C[C@@H](O)[C@H](NC(=O)[C@H](Cc1ccccc1)NC(=O)[C@@H](NC(=O)[C@H](CCCCN)NC(=O)[C@@H](Cc1c[nH]c2ccccc12)NC(=O)[C@H](Cc1c[nH]c2ccccc12)NC(=O)[C@H](Cc1ccccc1)NC(=O)[C@H](N)Cc1ccccc1)[C@@H](C)O)C(N)=O [Compound 3, D-Phe-Phe-Trp-D-Trp-Lys-Thr-Phe-Thr-NH2] | – | 15.5
CC(C)[C@@H]1NC(=O)[C@H](CCCCN)NC(=O)[C@@H](Cc2c[nH]c3ccccc23)NC(=O)[C@H](Cc2ccc(O)cc2)NC(=O)[C@@H](NC(=O)[C@H](N)Cc2ccc3ccccc3c2)CSSC[C@@H](C(=O)N[C@H](C(N)=O)[C@@H](C)O)NC1=O [LANREOTIDE, D-Nal-cyclo[Cys-Tyr-D-Trp-Lys-Val-Cys]-Thr-NH2, reference compound] | 12. | 25.
C[C@H](N)C(=O)NCC(=O)N[C@H]1CSSC[C@@H](C(=O)O)NC(=O)[C@H](CO)NC(=O)[C@H]([C@@H](C)O)NC(=O)[C@H](Cc2ccccc2)NC(=O)[C@H]([C@@H](C)O)NC(=O)[C@H](CCCCN)NC(=O)[C@H](Cc2c[nH]c3ccccc23)NC(=O)[C@H](Cc2ccccc2)NC(=O)[C@H](Cc2ccccc2)NC(=O)[C@H](CC(N)=O)NC(=O)[C@H](CCCCN)NC1=O [SRIF, reference compound] | 8. | –
